Tested on: Foxp3^+ Treg cells
Experiment: In vivo Treg depletion with diphtheria toxin in Haplo-MC NOD mice carrying Foxp3^DTR
Set-up: species or system mouse
Details: for mice insulitis free in all the evaluated islets: 3 weeks after first injection

diphtheria toxin [DT]
insulitis after depletion of donor-type or host-type Treg cells (DT every 3 days for 21 days, H-2^b/g7 mixed chimeric NOD mice): significant but moderate recurrence of insulitis, without causing hyperglycemia | reduction of donor-type Treg (DT every 3 days for 21 days, donor cells carrying Foxp3^DTR): ~95% | reduction of host-type Treg (DT every 3 days for 21 days, host cells carrying Foxp3^DTR): ~90% | mice insulitis free in all the evaluated islets (donor-type Treg depleted chimeric mice): 50% | mice insulitis free in all the evaluated islets (host-type Treg depleted chimeric mice): 33%

Reference: patent US20230277597A1, “HAPLOIDENTICAL MIXED CHIMERISM FOR TREATING AUTOIMMUNE DISEASES” (CITY OF HOPE, priority 2020, published 2023)
